Measurements taken from publication PMC8629650, “Novel Elongator Protein 2 Inhibitors Mitigating Tumor Necrosis Factor-α Induced Osteogenic Differentiation Inhibition” (BioMed Research International, 2021).
pEC50, pKd: −log10 of the molar value. Read-outs that look alike come from different tables or passages of the source.

What was measured:
mouse ELP2 protein = molecular target: T1, mouse ELP2 protein (Mus musculus, UniProt Q91WG4); test: Surface plasmon resonance (SPR) affinity analysis, compounds fixed on the chip; type: binding; settings: for koff: read-out: Avg Koff; for kon: read-out: Avg Kon; for dissociation rate (in words): excluded from further testing
T1 sequence (Q91WG4 1-831): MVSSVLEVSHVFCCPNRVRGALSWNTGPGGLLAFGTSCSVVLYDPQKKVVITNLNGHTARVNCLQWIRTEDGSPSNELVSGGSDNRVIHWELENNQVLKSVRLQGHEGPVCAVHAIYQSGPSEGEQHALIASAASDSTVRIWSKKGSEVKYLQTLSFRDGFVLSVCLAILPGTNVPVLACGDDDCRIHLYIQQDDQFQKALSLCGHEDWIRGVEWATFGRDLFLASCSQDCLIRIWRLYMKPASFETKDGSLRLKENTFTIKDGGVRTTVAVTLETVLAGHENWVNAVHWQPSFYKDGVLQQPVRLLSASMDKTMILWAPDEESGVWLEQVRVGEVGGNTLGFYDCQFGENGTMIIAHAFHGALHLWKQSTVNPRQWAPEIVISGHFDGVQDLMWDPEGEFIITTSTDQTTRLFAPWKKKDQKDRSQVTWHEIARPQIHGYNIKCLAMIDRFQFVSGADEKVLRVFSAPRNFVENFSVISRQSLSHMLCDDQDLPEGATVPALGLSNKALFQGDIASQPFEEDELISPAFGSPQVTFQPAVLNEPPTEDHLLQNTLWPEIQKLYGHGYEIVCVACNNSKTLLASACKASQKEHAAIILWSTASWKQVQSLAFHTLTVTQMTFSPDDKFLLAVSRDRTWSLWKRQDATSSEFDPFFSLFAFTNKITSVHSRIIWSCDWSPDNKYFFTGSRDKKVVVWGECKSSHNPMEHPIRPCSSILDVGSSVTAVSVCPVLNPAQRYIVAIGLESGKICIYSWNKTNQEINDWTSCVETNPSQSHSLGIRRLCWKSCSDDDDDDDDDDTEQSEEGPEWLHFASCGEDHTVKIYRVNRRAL
Procedure: To validate the binding affinity of the candidate compounds with ELP2 protein, we tested the binding affinity through SPR assay. The experiment was performed as previous reported. Briefly, the candidate molecules are crossed onto the chip surface by hydrogen substitution reaction. During the experimental SPR, the chips were first primed with running buffer (1x PBS containing 5% DMSO). […] To validate the reliability of our method, we selected biotin and rapamycin binding with FKBP12 as a system control. Additionally, the solvents DMSO for compounds and PBS (pH = 7.0) for proteins were measured individually as blank controls and background noise controls.
Under the technique of photo-cross-linker biosensor chip, the candidate compounds were immobilized onto the chemically modified chip surface in random orientations and without any attached label or linker. After the compounds were fixed onto the surface of the chip, ELP2 protein solved in PBS were passed over the chip surface. The original sensor gram information was collected in real time.
The raw sensor gram information was collected in real time. The binding of each compound to the ELP2 protein during each cycle is represented by the response unit (RU) of surface resonance.

C2C12 cells [1] = test: Alkaline phosphatase (ALP) activity under TNF-α-induced osteogenic differentiation inhibition, ID model; type: cell-based; settings: for effect on TNF-α-induced inhibition of osteoblast differentiation (ALP stain and activity) / pEC50: C2C12 cells; for effect on TNF-α-induced inhibition of osteoblast differentiation (ALP stain and activity): vs. TNF-α group; for pEC50: Mus musculus, ID model, TNF-α; for effect on TNF-α-induced inhibition (ALP), data not shown: cell model not specified (C2C12 / MC3T3-E1)
Procedure: (§1) C2C12 cells were kept in DMEM complemented with the 10% fetal dairy serum and 1% penicillin/streptomycin and MC3T3-E1 cells in minimally needed culture medium (MEM, HyClone, GE Healthcare, USA) supplemented with 10% fetal bovine serum and 1% penicillin/streptomycin, were grown individually, and then cultured at 37.0°C, 5% CO2. As previously reported, cells were cultured for differentiation induction in the presence of TNF-α with or without our candidate compounds.
(§2) […] was detected by ALP activity via the alkaline phosphatase assay kit followed by the instruction. A BioTek microplate spectrophotometer was used to assay the apparent density at the wavelength of 405 nm. ALP activity values are equally common in the density protein found in stem cells determined to use the BCA Protein Assay Kit.
(§3) To determine the effect of the candidate compounds on TNF-α-induced osteogenic differentiation inhibition, we examined the activity of osteogenic marker alkaline phosphatase in the cells. As mentioned in Materials and Method, cells were grown in an adequate osteoblast differentiation environment and tested the alkaline phosphatase activity.
(§4) Figure 3 The ALP stain and activity measurements of 2# and 5# candidate on C2C12 and MC3T3-E1 cell osteogenic differentiations. 2# and 5# compounds show remarkable mitigation against TNF-α induced ALP activity inhibition. The ALP staining observation in each group (a, c). The relative ALP activity were measured from the cell lysates of each group (b, d). Data are mean ± SD; ^∗P < 0.05, ^∗∗P < 0.01, each experiment group vs. the TNF-α treatment cell group.

MC3T3-E1 cells [2] = test: Alkaline phosphatase (ALP) activity under TNF-α-induced osteogenic differentiation inhibition, SD model; type: cell-based; settings: for pEC50: Mus musculus, SD model, TNF-α; for effect on TNF-α-induced inhibition of osteoblast differentiation (ALP stain and activity): vs. TNF-α group
Procedure: as §1, §2, §3, §4

C2C12 cells [3] = test: Mineralization assessment by Alizarin Red S staining; type: cell-based; settings: day 35, vs. TNF-α control
Text: (§5) As reported, in two differentiation cell models, the culture medium was replaced every 3 days till 35th day. Mineralization of the cell was found by staining using the Optimized Alizarin Red S Stain Kit by the kit instructions.
(§6) In order to test the function of the candidate compounds on the mineralization activity during osteoblasts differentiation, the self-differentiation (SD) model and inflammatory-differentiated (ID) model cells were stained with Alizarin Red S staining on day 35 after differentiation induction, and the mineralization activity of each group can be estimated by the number of stained spots.
(§7) Figure 5 Alizarin Red S staining of differentiated osteogenic cells, the self-differentiation (SD) model, and inflammatory-differentiated (ID) model cells were stained with Alizarin Red S staining on day 35 after differentiation induction, and the mineralization activity of each group can be estimated by the number of stained spots (bar = 50 μm).

MC3T3-E1 cells [4] = test: as above; type: cell-based; settings: day 35, vs. TNF-α control
Text: as §5, §6, §7

[5] = tested on: COL-I, ALP, OCN, BMP-2, RUNX-2 and OSX genes in C2C12 and MC3T3-E1 cells; test: Q-PCR of osteogenic differentiation marker genes after TNF-α stimulation; type: cell-based; settings: day 7, C2C12 and MC3T3-E1, vs. TNF-α-stimulated cells
Procedure: The total mRNA was extracted from cell culture using TRIzol reagent (Thermo Scientific USA). The concentration and quality of the RNA were checked using a NanoDrop™ 8000 spectrophotometer, and cDNA was then synthesized. Gene expression according to the recommendations of the reverse transcription kit was detected. Host gene β-actin was selected as the reference gene, and the gene expression level analysis was calculated by the 2^-ΔΔCt quantification method.
(§8) In order to investigate the changes in osteogenic differentiation associated molecules including COL-I, ALP, OCN, BMP-2, RUNX-2, and OSX genes, we performed Q-PCR and Western blot analysis on the differentiation cellular models on the 7th day after osteoblast cell differentiation are shown in Table 2. […] The level of above gene expression was raised in the 2# and the 5# candidate-treated cell with cell morphology phenotype differentiation when compared to the cell stimulated with TNF-α (Figure 6). A further study of the expression of osteoblastic markers at the protein level was performed using Western blot.
Figure 6 Effect of 2# and 5# treatment on TNF-α-stimulated C2C12 (a) and MC3T3-E1 (b) cell osteoblast differentiation-associated marker gene expression. Q-PCR analysis in the differentiation was conducted on the 7th day after osteoblast cell differentiation in the ID and SD models. […]

[6] = tested on: osteogenic differentiation marker proteins in differentiation model cells; test: Western blot of osteogenic differentiation markers after TNF-α treatment; type: cell-based; settings: day 7, vs. TNF-α treatment
Procedure: After treatment, using PBS to wash the cells, the cells were lysed with RIPA lysis buffer. The cell lysate was then separated by SDS-PAGE. All proteins were transferred to PVDF membranes (Bio-Rad, USA). The PVDF membrane was then blocked with 5% skim milk in Tris-buffered physiological saline -0.1% Tween-20 for 1 hour and incubated with the following primary antibody: anti-ALP antibody (rabbit), anti-COL-1 antibody (mouse), anti-OCN antibody (mouse), anti-BMP-2 antibody (mouse), anti-Runx2 antibody (mouse), Anti-Osterix (rabbit), and anti-β-actin (mouse), followed by suitable horseradish peroxidase- (HRP-) labeled secondary antibody, blocking buffer for goat anti-rabbit IgG. Images were captured using G&E imaging system.
as §8, with “blot. […]” for “blot.”

[7] = SPR, Elp2 protein 200 nM to 3200 nM passed over the immobilized compound, read-out: Avg KD
[8] = SPR, Elp2 protein 200 nM to 3200 nM passed over the immobilized compound

| SMILES | pKd (mouse ELP2 protein; [7]) | koff (mouse ELP2 protein; [8]) | kon (mouse ELP2 protein; [8]) | further results |
| --- | --- | --- | --- | --- |
| COc1ccc([C@H](CC(=O)N[C@@H](Cc2ccccc2)C(N)=O)c2oc(C)cc(=O)c2O)cc1 [1#] | 3.93 | 0.234 s⁻¹ | 1980 M⁻¹ s⁻¹ | dissociation rate (in words) (mouse ELP2 protein; SPR): much faster dissociation rates |
| O=C1c2ccccc2-c2c1c1ccccc1c(=O)n2NCCO [2#] | 5.84 | 0.000241 s⁻¹ | 165 M⁻¹ s⁻¹ | effect on TNF-α-induced inhibition of osteoblast differentiation (ALP stain and activity) (C2C12 cells [1]): significant ease to TNF-α-induced inhibition of osteoblast differentiation; pEC50 (C2C12 cells [1]): 4.83; pEC50 (MC3T3-E1 cells [2]): 4.53; effect on TNF-α-induced inhibition of osteoblast differentiation (ALP stain and activity) (MC3T3-E1 cells [2]): significant ease to TNF-α-induced inhibition of osteoblast differentiation; mineralization activity (Alizarin Red S stained spots) (C2C12 cells [3]): increased the red spot on the cell surface; mineralization activity (Alizarin Red S stained spots) (MC3T3-E1 cells [4]): increased the red spot on the cell surface; expression level of osteogenic differentiation marker genes (COL-I, ALP, OCN, BMP-2, RUNX-2, OSX) [5]: raised; expression of osteogenic differentiation marker proteins [6]: increased |
| Cc1cc(=O)c2c(o1)[C@H](c1cccc(O)c1)CC(=O)O2 [3#] | – | 0.45 s⁻¹ | 2.31 M⁻¹ s⁻¹ | – |
| COCn1ncnc1NCCn1c(C)cc(O)cc1=O [4#] | – | 0.342 s⁻¹ | 1.85 M⁻¹ s⁻¹ | – |
| COc1cc(CCN)c(-c2csc(-c3ccc(O)cc3)n2)cc1OC [5#] | 5.48 | 0.0122 s⁻¹ | 3720 M⁻¹ s⁻¹ | effect on TNF-α-induced inhibition of osteoblast differentiation (ALP stain and activity) (C2C12 cells [1]): significant ease to TNF-α-induced inhibition of osteoblast differentiation; pEC50 (C2C12 cells [1]): 4.92; pEC50 (MC3T3-E1 cells [2]): 4.74; effect on TNF-α-induced inhibition of osteoblast differentiation (ALP stain and activity) (MC3T3-E1 cells [2]): significant ease to TNF-α-induced inhibition of osteoblast differentiation; mineralization activity (Alizarin Red S stained spots) (C2C12 cells [3]): increased the red spot on the cell surface; mineralization activity (Alizarin Red S stained spots) (MC3T3-E1 cells [4]): increased the red spot on the cell surface; expression level of osteogenic differentiation marker genes (COL-I, ALP, OCN, BMP-2, RUNX-2, OSX) [5]: raised; expression of osteogenic differentiation marker proteins [6]: increased |
| COc1cccc(N2Cc3nn(Cc4ccccc4Cl)c(=O)n3C2=O)c1 [6#] | – | 0.415 s⁻¹ | 2.54 M⁻¹ s⁻¹ | – |
| COc1ccc(C(CC(=O)NC(C)C(N)=O)c2oc(C)cc(=O)c2O)cc1 (centres unmarked) [7#] | – | – | – | pKd (mouse ELP2 protein): 5.50; koff (mouse ELP2 protein): 0.0011 s⁻¹; kon (mouse ELP2 protein): 347 M⁻¹ s⁻¹; effect on TNF-α-induced inhibition (ALP), data not shown (C2C12 cells [1]): only slightly easing of the inhibition resulting from TNF-α |
| CC1CCCC2(C)CC3OC(=O)C(CN4CCN(C(=O)c5ccco5)CC4)C3C=C12 (centres unmarked) [8#] | 7.03 | 0.00105 s⁻¹ | 11200 M⁻¹ s⁻¹ | effect on TNF-α-induced inhibition (ALP), data not shown (C2C12 cells [1]): only slightly easing of the inhibition resulting from TNF-α |
| Cc1cc(O)cc(=O)n1C[C@H](O)c1ccc(O)cc1 [9#] | 3.83 | 0.075 s⁻¹ | 502 M⁻¹ s⁻¹ | dissociation rate (in words) (mouse ELP2 protein; SPR): much faster dissociation rates |
| COc1ccc2c(c1)C(CCn1c(C)cc(O)cc1=O)C(=O)N2 (centres unmarked) [10#] | – | 0.504 s⁻¹ | 2.18 M⁻¹ s⁻¹ | – |
| Cc1cc(O)cc(=O)n1C[C@@H](O)c1cccc(O)c1 [11#] | 5.46 | 0.000774 s⁻¹ | 222 M⁻¹ s⁻¹ | effect on TNF-α-induced inhibition (ALP), data not shown (C2C12 cells [1]): only slightly easing of the inhibition resulting from TNF-α |
